In PubChem BioAssay AID344 (DTP/NCI, 2004):
Several values for one entry are separate records, joined by “and”; a condition that tells them apart may be missing. Identical values can stand only once. Inconclusive results and toxic doses are left out.

Test system: mice, LPC-1 plasma cell tumor ip, median survival T/C
Assay: NCI In Vivo Anticancer Drug Screen. Data for tumor model Lieberman Plasma Cell No. 1 (LPC-1) (intraperitoneal) in unknown mice
Conditions: endpoint: median survival time, higher = longer survival
Procedure: The antitumor activity of compounds was measured in mice bearing transplantable tumors. Survival or tumor size were measured and the results are expressed as the measurement made in the treated group (T) divided by the measurement made in the vehicle treated control group (C). The tumor model used in this assay is Lieberman Plasma Cell No. 1 (LPC-1) (intraperitoneal) in unknown mice

Q: Which T/C (dose: 6.25 mg/kg/injection, schedule: Q01DX028 (sc), vehicle: carboxymethylcellulose (CMC)) does the source give for `CS(=O)(=O)OCCC(=O)NCNC(=O)CCOS(C)(=O)=O` here?
A: 184 % of control

Q: What about the T/C (dose: 12.5 mg/kg/injection, schedule: Q01DX012 (sc), vehicle: carboxymethylcellulose (CMC)) of the same compound?
A: 105 % of control

Q: What about the T/C (dose: 12.5 mg/kg/injection, schedule: Q01DX028 (sc), vehicle: carboxymethylcellulose (CMC)) of the same compound?
A: 223 % of control and 276 % of control

Q: What about the T/C (dose: 25.0 mg/kg/injection, schedule: Q01DX012 (sc), vehicle: carboxymethylcellulose (CMC)) of the same compound?
A: 328 % of control

Q: And the T/C (dose: 25.0 mg/kg/injection, schedule: Q01DX028 (sc), vehicle: carboxymethylcellulose (CMC))?
A: 200 % of control and 230 % of control

Q: And the T/C (dose: 50.0 mg/kg/injection, schedule: Q01DX012 (sc), vehicle: carboxymethylcellulose (CMC))?
A: 110 % of control

Q: What about the T/C (dose: 50.0 mg/kg/injection, schedule: Q01DX028 (sc), vehicle: carboxymethylcellulose (CMC)) of the same compound?
A: 107 % of control and 121 % of control

Q: And the T/C (dose: 75.0 mg/kg/injection, schedule: Q01DX028 (sc), vehicle: carboxymethylcellulose (CMC))?
A: 87 % of control

Q: How did the T/C (dose: 3.75 mg/kg/injection, schedule: Q01DX028 (sc), vehicle: saline) turn out when `NC(CSCc1ccc(N(CCCl)CCCl)cc1)C(=O)O` (configuration not stated) was run?
A: 100 % of control

Q: What about the T/C (dose: 7.5 mg/kg/injection, schedule: Q01DX028 (sc), vehicle: saline) of the same compound?
A: 111 % of control

Q: What about the T/C (dose: 15.0 mg/kg/injection, schedule: Q01DX028 (sc), vehicle: saline) of the same compound?
A: 102 % of control

Q: And the T/C (dose: 30.0 mg/kg/injection, schedule: Q01DX028 (sc), vehicle: saline)?
A: 122 % of control

Q: Which results are given for `CO[C@H](C(=O)[C@@H](O)[C@@H](C)O)[C@@H]1Cc2cc3cc(OC4CC(OC5CC(O)C(O)C(C)O5)C(O)C(C)O4)c(C)c(O)c3c(O)c2C(=O)[C@H]1OC1CC(OC2CC(OC3CC(C)(O)C(O)C(C)O3)C(O)C(C)O2)C(O)C(C)O1` (some centres not stated)?
A: T/C (dose: 0.2 mg/kg/injection, schedule: Q01DX028 (sc), vehicle: saline): 100 % of control; T/C (dose: 0.4 mg/kg/injection, schedule: Q01DX028 (sc), vehicle: saline): 97 % of control

Q: Which T/C (dose: 26.0 mg/kg/injection, schedule: Q01DX028 (sc), vehicle: saline) does the source give for `CNNCc1ccc(C(=O)NC(C)C)cc1` here?
A: 96 % of control

Q: And the T/C (dose: 65.0 mg/kg/injection, schedule: Q01DX028 (sc), vehicle: saline)?
A: 166 % of control

Q: And the T/C (dose: 90.0 mg/kg/injection, schedule: Q01DX028 (sc), vehicle: saline)?
A: 115 % of control

Q: And the T/C (dose: 108.0 mg/kg/injection, schedule: Q01DX028 (sc), vehicle: saline)?
A: 180 % of control

Q: And the T/C (dose: 135.0 mg/kg/injection, schedule: Q01DX028 (sc), vehicle: saline)?
A: 100 % of control

Q: What about the T/C (dose: 300.0 mg/kg/injection, schedule: Q01DX028 (sc), vehicle: saline) of the same compound?
A: 114 % of control

Q: What about the T/C (dose: 500.0 mg/kg/injection, schedule: Q01DX028 (sc), vehicle: saline) of the same compound?
A: 95 % of control

Q: With `NC(Cc1ccc(N(CCCl)CCCl)cc1)C(=O)O` (configuration not stated) as the compound, how does the T/C (dose: 2.0 mg/kg/injection, schedule: Q01DX028 (sc), vehicle: methylcellulose (MC)) read?
A: 180 % of control

Q: And the T/C (dose: 4.0 mg/kg/injection, schedule: Q01DX028 (sc), vehicle: methylcellulose (MC))?
A: 155 % of control

Q: And the T/C (dose: 8.0 mg/kg/injection, schedule: Q01DX028 (sc), vehicle: methylcellulose (MC))?
A: 108 % of control

Q: For `Cn1cnc([N+](=O)[O-])c1Sc1nc(N)nc2nc[nH]c12`, which T/C (dose: 0.5 mg/kg/injection, schedule: Q01DX028 (sc), vehicle: carboxymethylcellulose (CMC)) is on record?
A: 97 % of control

Q: What about the T/C (dose: 1.0 mg/kg/injection, schedule: Q01DX028 (sc), vehicle: carboxymethylcellulose (CMC)) of the same compound?
A: 117 % of control

Q: What about the T/C (dose: 4.0 mg/kg/injection, schedule: Q01DX028 (sc), vehicle: carboxymethylcellulose (CMC)) of the same compound?
A: 100 % of control

Q: `CCOC(=O)c1c[nH]c2ccc(N(CCCl)CCCl)cc12` was tested. Which T/C (dose: 23.0 mg/kg/injection, schedule: Q01DX028 (sc), vehicle: carboxymethylcellulose (CMC)) did it give?
A: 112 % of control

Q: What about the T/C (dose: 39.0 mg/kg/injection, schedule: Q01DX028 (sc), vehicle: carboxymethylcellulose (CMC)) of the same compound?
A: 110 % of control

Q: What about the T/C (dose: 65.0 mg/kg/injection, schedule: Q01DX028 (sc), vehicle: carboxymethylcellulose (CMC)) of the same compound?
A: 89 % of control

Q: And the T/C (dose: 108.0 mg/kg/injection, schedule: Q01DX015 (sc), vehicle: carboxymethylcellulose (CMC))?
A: 97 % of control

Q: What about the T/C (dose: 108.0 mg/kg/injection, schedule: Q01DX028 (sc), vehicle: carboxymethylcellulose (CMC)) of the same compound?
A: 87 % of control
